Measurements: the NIST ThermoML archive (doi:10.1016/j.jct.2015.08.010)

Experiment: xn = mol fraction of the nth substance listed
Details: 100 kPa, Liquid; for viscosity: Falling or rolling sphere viscometry; for mass density: Vibrating tube method

C1CCC2=NCCC[NH+]2CC1.c1c[n-]cn1 [1,8-diazabicyclo[5.4.0]undec-7-enium imidazolide] + O
Details | mass density, 293.15 K [kg/m3] | mass density, 298.15 K [kg/m3] | mass density, 303.15 K [kg/m3] | mass density, 308.15 K [kg/m3] | mass density, 313.15 K [kg/m3] | viscosity, 293.15 K [mPa·s] | viscosity, 298.15 K [mPa·s] | viscosity, 303.15 K [mPa·s] | viscosity, 308.15 K [mPa·s] | viscosity, 313.15 K [mPa·s]
x1 = 0.0298 | 1026.99 | 1024.52 | 1021.91 | 1019.17 | 1016.33 | 2.845 | 2.428 | 2.096 | 1.835 | 1.614
x1 = 0.0698 | 1048.57 | 1045.19 | 1041.75 | 1038.24 | 1034.66 | 8.167 | 6.74 | 5.761 | 4.854 | 4.071
x1 = 0.0998 | 1057.33 | 1053.65 | 1050.01 | 1046.13 | 1042.33 | 14.13 | 11.17 | 9.019 | 7.406 | 6.217
x1 = 0.1875 | 1067.15 | 1063.22 | 1059.26 | 1055.28 | 1051.28 | 34.98 | 25.84 | 19.66 | 15.37 | 12.31
x1 = 0.2994 | 1067.1 | 1063.15 | 1059.2 | 1055.23 | 1051.26 | 60.57 | 42.65 | 30.99 | 23.32 | 18.12
x1 = 0.444 | 1063.55 | 1059.63 | 1055.71 | 1051.79 | 1047.79 | 72.41 | 51.28 | 37.8 | 28.37 | 21.76
x1 = 0.5989 | 1059.62 | 1055.73 | 1051.85 | 1047.97 | 1044.1 | 69.49 | 49.75 | 36.33 | 27.13 | 20.87
x1 = 0.7516 | 1056.72 | 1052.85 | 1048.97 | 1045.08 | 1041.21 | 63.94 | 44.98 | 32.9 | 24.83 | 19.33
x1 = 0.8728 | 1055.11 | 1051.25 | 1047.41 | 1043.56 | 1039.73 | 55.45 | 39.57 | 29.31 | 22.6 | 17.88
x1 = 1 | 1053.63 | 1049.78 | 1045.94 | 1042.11 | 1038.28 | 47.82 | 34.94 | 26.36 | 20.5 | 16.28
